Results reported in patent publication US9365574B2, “Soluble guanylate cyclase activators” (Merck Sharp & Dohme Corp., priority 2010, dated 2016).

Test system: Spontaneously hypertensive rats (SHR)
Assay: Acute Efficacy in Spontaneously Hypertensive Rats (SHR), telemetry blood pressure
Format: in vivo, rat
Details: dose 0.3 mpk
Description: Acute Efficacy in Spontaneously Hypertensive Rats (SHR)
Spontaneously hypertensive rats (SHR, male, Charles River) were implanted with DSI TA11PA-C40 telemetry device (Data Sciences, Inc., St. Paul, Minn.) under isoflurane or ketamine/metomidine anesthesia. The telemetry unit catheter was inserted into the descending aorta via the femoral artery and the telemetry device was implanted subcutaneously in the left flank area. Animals were allowed to recover from surgery for 14 days before the start of any studies. Blood pressure, heart rate, and activity signals from conscious, freely moving rats were recorded continuously for 30 seconds every 10 minutes. On the day prior to administration of compound, a single oral dose of vehicle (10% transcutol/20% Cremophor/70% water) was administered to all animals to establish baseline control data. The blood pressure lowering efficacy of compound (PO) or vehicle was evaluated following a single oral gavage. Data were collected as hourly averages, and changes in blood pressure were calculated by subtracting control baseline data on an hourly basis. Animals were maintained on normal diet with a 12 hour light-dark cycle.
Maximum peak decreases of systolic blood pressure (SBP) in SHR at a particular P.O. dose (mpk milligrams per kilogram) for the following representative compounds are provided.

Row | SMILES | Maximum SBP reduction [mmHg]
1 | CC1(c2cn(CC3CC3)nn2)C(=O)Nc2nc(-c3nn(CCC(F)(F)F)c4ncccc34)nc(N)c21 (centres unmarked) [Example 180, 4-Amino-5-[1-(Cyclopropylmethyl)-1H-1,2,3-Triazol-4-yl]-5-Methyl-2-[1-(3,3,3-Trifluoropropyl)-1H-Pyrazolo[3,4-B]Pyridin-3-yl]-5,7-Dihydro-6H-Pyrrolo[2,3-D]Pyrimidin-6-One] | 18 ± 5

Same assay, conditions: dose 1.0 mpk

Row | SMILES | Maximum SBP reduction [mmHg]
2 | CC1(C(=O)Nc2cccnc2)C(=O)Nc2nc(-c3nn(CCC(F)(F)F)c4ncccc34)nc(N)c21 (centres unmarked) [Example 182, 4-Amino-5-Methyl-6-Oxo-N-(Pyridin-3-yl)-2-[1-(3,3,3-Trifluoropropyl)-1H-Pyrazolo[3,4-B]Pyridin-3-yl]-6,7-Dihydro-5H-Pyrrolo[2,3-D]Pyrimidine-5-Carboxamide] | 46 ± 11

Same assay, conditions: single oral dose 0.1 mpk P.O.

Row | SMILES | Maximum peak decrease of systolic blood pressure (SBP) in SHR, Category
3 | CC1(C(N)=O)C(=O)Nc2nc(-c3nn(CCC(F)(F)C(F)(F)F)c4nc(Cl)ccc34)nc(N)c21 (centres unmarked) [Example 214, 4-amino-2-[6-chloro-1-(3,3,4,4,4-pentafluorobutyl)-1H-pyrazolo[3,4-b]pyridin-3-yl]-5-methyl-6-oxo-6,7-dihydro-5H-pyrrolo[2,3-d]pyrimidine-5-carboxamide] | A (Category A=SBP in SHRs<25 mmHg)

Same assay, conditions: single oral dose 0.3 mpk P.O.

Row | SMILES | Maximum peak decrease of systolic blood pressure (SBP) in SHR, Category
4 | CNc1nc(-c2nn(CCC(F)(F)F)c3ncccc23)nc2c1C(C)(C(=O)NC1CC1)C(=O)N2 (centres unmarked) [Example 263, N-cyclopropyl-5-methyl-4-(methylamino)-6-oxo-2-[1-(3,3,3-trifluoropropyl)-1H-pyrazolo[3,4-b]pyridin-3-yl]-6,7-dihydro-5H-pyrrolo[2,3-d]pyrimidine-5-carboxamide] | A (Category A=SBP in SHRs<25 mmHg)
5 | Cc1nc(C2(C)C(=O)Nc3nc(-c4nn(CCC(F)(F)C(F)(F)F)c5ncccc45)nc(N)c32)sc1C (centres unmarked) [Example 206, 4-amino-5-(4,5-dimethyl-1,3-thiazol-2-yl)-5-methyl-2-[1-(3,3,4,4,4-pentafluorobutyl)-1H-pyrazolo[3,4-b]pyridin-3-yl]-5,7-dihydro-6H-pyrrolo[2,3-d]pyrimidin-6-one] | C (Category C=SBP in SHRs>40 mmHg)
6 | CC1(c2cn(CC3CC3)nn2)C(=O)Nc2nc(-c3nn(CCC(F)(F)F)c4ncccc34)nc(N)c21 (centres unmarked) [Example 180, 4-Amino-5-[1-(Cyclopropylmethyl)-1H-1,2,3-Triazol-4-yl]-5-Methyl-2-[1-(3,3,3-Trifluoropropyl)-1H-Pyrazolo[3,4-B]Pyridin-3-yl]-5,7-Dihydro-6H-Pyrrolo[2,3-D]Pyrimidin-6-One] | A (Category A=SBP in SHRs<25 mmHg)
7 | CC1(CC#N)C(=O)Nc2nc(-c3nn(CCC(F)(F)C(F)(F)F)c4cc(Cl)ccc34)nc(N)c21 (centres unmarked) [Example 175, {4-Amino-2-[6-Chloro-1-(3,3,4,4,4-Pentafluorobutyl)-1H-Indazol-3-yl]-5-Methyl-6-Oxo-6,7-Dihydro-5H-Pyrrolo[2,3-D]Pyrimidin-5-yl}Acetonitrile] | B (Category B=SBP in SHRs 25-40 mmHg)
8 | CNc1nc(-c2nn(CCC(F)(F)C(F)(F)F)c3ncccc23)nc2c1C(C(=O)NC1CC1)(C1CC1)C(=O)N2 (centres unmarked) [Example 262, N,5-dicyclopropyl-4-(methylamino)-6-oxo-2-[1-(3,3,4,4,4-pentafluorobutyl)-1H-pyrazolo[3,4-b]pyridin-3-yl]-6,7-dihydro-5H-pyrrolo[2,3-d]pyrimidine-5-carboxamide] | A (Category A=SBP in SHRs<25 mmHg)
9 | CNc1nc(-c2nn(CCC(F)(F)C(F)(F)F)c3ncccc23)nc2c1C(C)(C(=O)NC1CC1)C(=O)N2 (centres unmarked) [Example 187, N-Cyclopropyl-5-Methyl-4-(Methylamino)-6-Oxo-2-[1-(3,3,4,4,4-Pentafluorobutyl)-1H-Pyrazolo[3,4-B]Pyridin-3-yl]-6,7-Dihydro-5H-Pyrrolo[2,3-D]Pyrimidine-5-Carboxamide] | B (Category B=SBP in SHRs 25-40 mmHg)
10 | CC1(c2ccccc2)C(=O)Nc2nc(-c3nc(CCC(F)(F)C(F)(F)F)c4ncccn34)nc(N)c21 (centres unmarked) [Example 191, 4-Amino-5-Methyl-2-[8-(3,3,4,4,4-Pentafluorobutyl)Imidazo[1,5-A]Pyrimidin-6-yl]-5-Phenyl-5,7-Dihydro-6H-Pyrrolo[2,3-D]Pyrimidin-6-One] | B (Category B=SBP in SHRs 25-40 mmHg)
11 | CC1(C(=O)Nc2ccccn2)C(=O)Nc2nc(-c3nn(CCCC(F)(F)F)c4ncccc34)nc(N)c21 (centres unmarked) [Example 226, 4-amino-5-methyl-6-oxo-N-pyridin-2-yl-2-[1-(4,4,4-trifluorobutyl)-1H-pyrazolo[3,4-b]pyridin-3-yl]-6,7-dihydro-5H-pyrrrolo[2,3-d]pyrimidine-5-carboxamide] | B (Category B=SBP in SHRs 25-40 mmHg)
12 | CC1(C(=O)Nc2cccnc2)C(=O)Nc2nc(-c3nn(CCCC(F)(F)F)c4ncccc34)nc(N)c21 (centres unmarked) [Example 227] | B (Category B=SBP in SHRs 25-40 mmHg)
13 | CC1(C(=O)NC2CCC2)C(=O)Nc2nc(-c3nn(CCC(F)(F)C(F)(F)F)c4cc(Cl)ccc34)nc(N)c21 (centres unmarked) [Example 196, 4-amino-2-[6-chloro-1-(3,3,4,4,4-pentafluorobutyl)-1H-indazol-3-yl]-N-cyclobutyl-5-methyl-6-oxo-6,7-difluoro-5H-pyrrolo[2,3-d]pyrimidine-5-carboxamide] | B (Category B=SBP in SHRs 25-40 mmHg)
14 | CC(C)NC(=O)C1(C)C(=O)Nc2nc(-c3nn(CCC(F)(F)C(F)(F)F)c4ncccc34)nc(N)c21 (centres unmarked) [Example 197, 4-amino-5-methyl-N-(1-methylethyl)-6-oxo-2-[1-(3,3,4,4,4-pentafluorobutyl)-1H-pyrazolo[3,4-b]pyridin-3-yl]-6,7-dihydro-5H-pyrrolo[2,3-d]pyrimidine-5-carboxamide] | B (Category B=SBP in SHRs 25-40 mmHg)
15 | CC1(C(N)=O)C(=O)Nc2nc(-c3nn(CCCC(F)(F)F)c4ncccc34)nc(N)c21 (centres unmarked) [Example 228, 4-amino-5-methyl-6-oxo-2-[1-(4,4,4-trifluorobutyl)-1H-pyrazolo[3,4-b]pyridin-3-yl]-6,7-dihydro-5H-pyrrolo[2,3-d]pyrimidine-5-carboxamide] | A (Category A=SBP in SHRs<25 mmHg)
16 | CC1(C(=O)NC2CC2)C(=O)Nc2nc(-c3nc(CCC(F)(F)C(F)(F)F)n4ncccc34)nc(N)c21 (centres unmarked) [Example 251, 4-amino-H-cyclopropyl-5-methyl-6-oxo-2-[7-(3,3,4,4,4-pentafluorobutyl)imidazo[1,5-b]pyridazin-5-yl]-6,7-dihydro-5H-pyrrolo[2,3-d]pyrimidine-5-carboxamide] | C (Category C=SBP in SHRs>40 mmHg)
17 | CC1(C(=O)NC2CC2)C(=O)Nc2nc(-c3nn(CCC(F)(F)F)c4nc(Cl)ccc34)nc(N)c21 (centres unmarked) [Example 183, 4-Amino-2-[6-Chloro-1-(3,3,3-Trifluoropropyl)-1H-Pyrazolo[3,4-B]Pyridin-3-yl]-N-Cyclopropyl-5-Methyl-6-Oxo-6,7-Dihydro-5H-Pyrrolo[2,3-D]Pyrimidine-5-Carboxamide] | C (Category C=SBP in SHRs>40 mmHg)
18 | Nc1nc(-c2nn(CCC(F)(F)F)c3ncccc23)nc2c1C(C(=O)NC1CC1)(C1CC1)C(=O)N2 (centres unmarked) [Example 245, 4-amino-N,5-dicyclopropyl-6-oxo-2-[1-(3,3,3-trifluoropropyl)-1H-pyrazolo[3,4-b]pyridin-3-yl]-6,7-dihydro-5H-pyrrolo[2,3-d]pyrimidine-5-carboxamide] | C (Category C=SBP in SHRs>40 mmHg)

Same assay, conditions: single oral dose 1 mpk P.O.

Row | SMILES | Maximum peak decrease of systolic blood pressure (SBP) in SHR, Category
19 | CC1(CC(=O)NC2CC2)C(=O)Nc2nc(-c3nn(CCC(F)(F)C(F)(F)F)c4cc(Cl)ccc34)nc(N)c21 (centres unmarked) [Example 208, 2-{4-amino-2-[6-chloro-1-(3,3,4,4,4-pentafluorobutyl)-1H-indazol-3-yl]-5-methyl-6-oxo-6,7-dihydro-5H-pyrrolo[2,3-d]pyrimidin-5-yl}-N-cyclopropylacetamide] | A (Category A=SBP in SHRs<25 mmHg)
20 | CC1(C(=O)Nc2cccnc2)C(=O)Nc2nc(-c3nn(CCC(F)(F)F)c4ncccc34)nc(N)c21 (centres unmarked) [Example 182, 4-Amino-5-Methyl-6-Oxo-N-(Pyridin-3-yl)-2-[1-(3,3,3-Trifluoropropyl)-1H-Pyrazolo[3,4-B]Pyridin-3-yl]-6,7-Dihydro-5H-Pyrrolo[2,3-D]Pyrimidine-5-Carboxamide] | B (Category B=SBP in SHRs 25-40 mmHg)
21 | Cn1ccc(NC(=O)C2(C)C(=O)Nc3nc(-c4nn(CCC(F)(F)C(F)(F)F)c5ncccc45)nc(N)c32)n1 (centres unmarked) [Example 218, 4-amino-5-methyl-N-(1-methyl-1H-pyrazol-3-yl)-6-oxo-2-[1-(3,3,4,4,4-pentafluorobutyl)-1H-pyrazolo[3,4-b]pyridin-3-yl]-6,7-dihydro-5H-pyrrolo[2,3-d]pyrimidine-5-carboxamide] | C (Category C=SBP in SHRs>40 mmHg)
22 | CC1(C(=O)Nc2ccccn2)C(=O)Nc2nc(-c3nn(CCOC(F)(F)F)c4ncccc34)nc(N)c21 (centres unmarked) [Example 209, 4-amino-5-methyl-6-oxo-N-pyridin-2-yl-2-{1-[2-(trifluoromethoxy)ethyl]-1H-pyrazolo[3,4-b]pyridin-3-yl}-6,7-dihydro-5H-pyrrolo[2,3-d]pyrimidine-5-carboxamide] | B (Category B=SBP in SHRs 25-40 mmHg)
23 | CC1(C(=O)NC2CC2)C(=O)Nc2nc(-c3nc(CCC(F)(F)C(F)(F)F)n4cc(Cl)ccc34)nc(N)c21 (centres unmarked) [Example 250, 4-amino-2-[6-chloro-3-(3,3,4,4,4-pentafluorobutyl)imidazo[1,5-a]pyridin-1-yl]-H-cyclopropyl-5-methyl-6-oxo-6,7-dihydro-5H-pyrrolo[2,3-d]pyrimidine-5-carboxamide] | C (Category C=SBP in SHRs>40 mmHg)
